One experiment deals with DNA. The settings on record: cited from earlier work; for published binding constant: bulk genomic DNA (average).
The test system of experiment [1] is oligonucleotides containing the screening sequence (SEQ ID NO:601) flanked by a test sequence (SEQ ID NO:605 to SEQ ID NO:613). The format is binding, Herpes Simplex Virus.
In experiment [2] the test system is 256 different 4 bp sequences flanking the UL9 recognition site. The format is binding, Herpes Simplex Virus.

“Also recorded” adds a separate entry of the source. Like-named read-outs stand apart in the source and are kept apart here. Starred links: 1 amine or outer side, 2 acyl side, 3 side chain; linkers in the order of their positions; H or OH if unused. Positions of bridges follow the written chain, without caps; N, C: chain ends. Non-standard residues stand in square brackets, D forms with d. Residues, ends and D or L forms follow the SMILES beside them. Chains are numbered I, II in the order given. Actinocin(9to1) = Cc1c2oc3c(C)ccc(C(=O)[*:1])c3nc-2c(C(=O)[*:2])c(N)c1=O; NMeV = CN[C@H](C(=O)O)C(C)C; Sar = CNCC(=O)O

Turning to `CS[C@H]1SC[C@H]2C(=O)N(C)[C@@H](C(C)C)C(=O)OC[C@@H](NC(=O)c3cnc4ccccc4n3)C(=O)N[C@@H](C)C(=O)N(C)[C@@H]1C(=O)N(C)[C@@H](C(C)C)C(=O)OC[C@@H](NC(=O)c1cnc3ccccc3n1)C(=O)N[C@@H](C)C(=O)N2C` [echinomycin], the “reported preferred DNA binding sequence” value in the experiment on DNA (literature) was “[(A/T)CGT]/[ACG(A/T)]”.

For the compound `COc1cccc2c1C(=O)c1c(O)c3c(c(O)c1C2=O)C[C@@](O)(C(=O)CO)C[C@@H]3O[C@H]1C[C@H](N)[C@H](O)[C@H](C)O1` [Doxorubicin], in experiment [1], the “effect on DNA:protein complexes” value was “most DNA:protein complexes are nearly completely disrupted, with UL9 polyT and UL9ATAT showing some DNA still complexed with protein”; the “effect on UL9 binding to the screening sequence” value is recorded as “strongly affected; also recorded: more mildly affected; also recorded: effects similar to those observed at 15 μM were also observed”; the “test sequences at which UL9 binding to the screening sequence is preferentially disrupted” value (“test sequences at which UL9 binding” for short) is “preferentially disrupts the binding of UL9 to the oligonucleotides UL9 polyT, UL9 GGGC, oriEco2, and oriEco3”.

As to `Cn1cc(NC(=O)c2cc(NC(=O)c3cc(NC=O)cn3C)cn2C)cc1C(=O)NCCC(=N)N` [distamycin, Distamycin A], in the experiment on DNA, the published binding constant result is reported as “about 2×10^5 M^−1”. Moreover, the published binding constant in the experiment with DNA (listed as dista) was 200000 M⁻¹. Moreover, in the experiment with DNA (literature), the “KA (binding to DNA)” value is 200000 M⁻¹ and the “reported preferred DNA binding sequence” value is “non-alternating AT-rich sequences”. For the same compound, in experiment [2], the “Ave. rank (actual) of the 18 sequences of the second consensus sequence” value came to 29; the “Average rank (actual) of the 16 sequences of the first consensus sequence” value was found to be 17; the “overall sequence preference in the screen of all 256 sequences” value was “preference for binding AT-rich sequences”; the “second consensus sequence, favoured bases and order” value was “A/G/C and G/C/A and G/C and A>G=C and C>A=G and G=C”. Moreover, in experiment [1], the “effect on DNA:protein complexes / free probe” value is “most of the DNA:protein complexes are intact (top band) with free probe appearing in the UL9 polyT and UL9 polyA lanes, and some free probe appearing in the UL9 ATAT lane; also recorded: free probe can be seen in the UL9 polyT and UL9 polyA lanes; also recorded: the DNA:protein in the polyT, UL9 polyA and UL9 ATAT lanes are near completely disrupted while some DNA:protein complexes in the other lanes persist”; the “test sequences at which UL9 binding” value is “preferentially disrupts binding to the test sequences UL9 polyT, UL9 polyA and, to a lesser extent, UL9ATAT; also recorded: preferentially disrupts binding to UL9 polyT, UL9 polyA and UL9 ATAT”.

With calicheamicin, in the experiment on DNA (literature), the “reported preferred DNA binding sequence” value was “TCCT/AGGA”.

As for `Cc1c2oc3c(C)ccc(C(=O)N[C@@H]4C(=O)N[C@H](C(C)C)C(=O)N5CCC[C@H]5C(=O)N(C)CC(=O)N(C)[C@@H](C(C)C)C(=O)O[C@@H]4C)c3nc-2c(C(=O)N[C@@H]2C(=O)N[C@H](C(C)C)C(=O)N3CCC[C@H]3C(=O)N(C)CC(=O)N(C)[C@@H](C(C)C)C(=O)O[C@@H]2C)c(N)c1=O` [actinomycin D, Actinomycin D] (I: T[dV]P[Sar][NMeV] / II: T[dV]P[Sar][NMeV]; ester I:1-I:C, II:1-II:C; linker I:N-II:N via Actinocin(9to1)), in the experiment with DNA (literature), the “reported preferred DNA binding sequence” value was “dGdC”. In addition, in experiment [2], the dinucleotide preference entry was “GC, particularly in the N1N2 position”; the “mean r % score for all oligonucleotides” value is 67%; the “overall sequence preference in the screen of all 256 sequences” value is recorded as “preference for binding GC-rich sequences; also recorded: prefers GC-rich sequences over AT-rich sequences”; the “position effect of a single base in the test site” value is given as “a single base in any particular position has little impact on the binding”. In experiment [2], the sequence binding preference result was “a preference for binding GC-rich oligonucleotides has been observed; also recorded: this binding preference is even more apparent”. Also, the “test sequences at which UL9 binding” value in experiment [1] is “preferentially disrupts the binding of UL9-COOH to the oligonucleotides UL9 CCCG (SEQ ID NO:605) and UL9 GGGC (SEQ ID NO:606); also recorded: preferentially disrupts the binding of UL9 to the oligonucleotides UL9 CCCG and UL9 GGGC”.

The values are drawn from US6384208B1, “Sequence directed DNA binding molecules compositions and methods” (Genelabs Technologies, Inc., priority 1991, dated 2002).
